Results taken from ChEMBL document CHEMBL5370535, “Thiazolyl hydrazineylidenyl indolones as unique potential multitargeting broad-spectrum antimicrobial agents” (Eur J Med Chem, 2023).
≈ marks a conversion by molar mass, not a printed value. Calls of active or inactive are those of the source. The rule behind the calls is not given here.

What was measured:
[1] = tested on: Staphylococcus aureus; experiment: Antibacterial activity against methicillin-resistant Staphylococcus aureus assessed as bacterial growth inhibition incubated for 24 hrs by CLSI based two serial dilution assay; assay type: functional
[2] = tested on: Enterococcus faecalis; experiment: Antibacterial activity against Enterococcus faecalis assessed as bacterial growth inhibition incubated for 24 hrs by CLSI based two serial dilution assay; assay type: functional
[3] = tested on: Staphylococcus aureus; experiment: Antibacterial activity against Staphylococcus aureus assessed as bacterial growth inhibition incubated for 24 hrs by CLSI based two serial dilution assay; assay type: functional
[4] = tested on: Staphylococcus aureus; experiment: Antibacterial activity against Staphylococcus aureus 25923 assessed as bacterial growth inhibition incubated for 24 hrs by CLSI based two serial dilution assay; assay type: functional
[5] = tested on: Staphylococcus aureus; experiment: Antibacterial activity against Staphylococcus aureus 29213 assessed as bacterial growth inhibition incubated for 24 hrs by CLSI based two serial dilution assay; assay type: functional
[6] = tested on: Klebsiella pneumoniae; experiment: Antibacterial activity against Klebsiella pneumoniae assessed as bacterial growth inhibition incubated for 24 hrs by CLSI based two serial dilution assay; assay type: functional
[7] = tested on: Escherichia coli; experiment: Antibacterial activity against Escherichia coli assessed as bacterial growth inhibition incubated for 24 hrs by CLSI based two serial dilution assay; assay type: functional
[8] = tested on: Escherichia coli; experiment: Antibacterial activity against Escherichia coli 25922 assessed as bacterial growth inhibition incubated for 24 hrs by CLSI based two serial dilution assay; assay type: functional
[9] = tested on: Pseudomonas aeruginosa; experiment: Antibacterial activity against Pseudomonas aeruginosa assessed as bacterial growth inhibition incubated for 24 hrs by CLSI based two serial dilution assay; assay type: functional
[10] = tested on: Pseudomonas aeruginosa; experiment: Antibacterial activity against Pseudomonas aeruginosa ATCC 27853 assessed as bacterial growth inhibition incubated for 24 hrs by CLSI based two serial dilution assay; assay type: functional
[11] = tested on: Acinetobacter baumannii; experiment: Antibacterial activity against Acinetobacter baumannii assessed as bacterial growth inhibition incubated for 24 hrs by CLSI based two serial dilution assay; assay type: functional
[12] = tested on: Candida albicans; experiment: Antifungal activity against Candida albicans assessed as inhibition of fungal growth incubated for 24 hrs by CLSI based two serial dilution assay; assay type: functional
[13] = tested on: Candida albicans; experiment: Antifungal activity against Candida albicans ATCC 90023 assessed as inhibition of fungal growth incubated for 24 hrs by CLSI based two serial dilution assay; assay type: functional
[14] = tested on: Candida tropicalis; experiment: Antifungal activity against Candida tropicalis assessed as inhibition of fungal growth incubated for 24 hrs by CLSI based two serial dilution assay; assay type: functional
[15] = tested on: Candida parapsilosis; experiment: Antifungal activity against Candida parapsilosis ATCC 22019 assessed as inhibition of fungal growth incubated for 24 hrs by CLSI based two serial dilution assay; assay type: functional; settings: Lodderomyces parapsilosis
[16] = tested on: Aspergillus fumigatus; experiment: Antifungal activity against Aspergillus fumigatus assessed as inhibition of fungal growth incubated for 24 hrs by CLSI based two serial dilution assay; assay type: functional
[17] = tested on: Staphylococcus aureus; experiment: Antibiofilm activity against methicillin-resistant Staphylococcus aureus assessed as inhibition of biofilm formation at 4 microg/ml incubated for 24 hrs by crystal violet staining based assay; assay type: functional; parameters: scale not given: the % may be the effect or the level left; settings: dose 4 µg/ml
[18] = tested on: Staphylococcus aureus; experiment: Antibiofilm activity against methicillin-resistant Staphylococcus aureus assessed as biofilm eradication incubated for 24 hrs by crystal violet staining based assay; assay type: functional, organism-based; settings: dose 1-16 µg/ml
[19] = tested on: Staphylococcus aureus; experiment: Bactericidal activity against methicillin-resistant Staphylococcus aureus assessed as reduction in viable bacteria at 4 times MIC measured at 30 mins by fluorescence microscopic analysis; assay type: functional, organism-based
[20] = tested on: Staphylococcus aureus; experiment: Bactericidal activity against methicillin-resistant Staphylococcus aureus assessed as increase in apoptotic cells at 4 times MIC by fluorescence microscopic analysis; assay type: functional, organism-based; settings: time <= 250.0 min
[21] = tested on: Staphylococcus aureus; experiment: Bactericidal activity against methicillin-resistant Staphylococcus aureus assessed as increase in apoptotic cells by measuring red fluorescence intensity at 4 times MIC measured upto 250 min by fluorescence microscopic analysis; assay type: functional, organism-based
[22] = Hemolytic activity in human RBC assessed as hemolysis at 64 microg/ml incubated for 2 hrs by double-dilution analysis; assay type: toxicity, cell-based, Erythrocyte; settings: red blood cells (erythrocytes), at 64 µg/mL, read-out: Activity
[23] = Cytotoxicity against human BEAS-2B cells assessed as survival rate at 0.5 to 64 microg/ml incubated for 24 hrs by MTT assay; assay type: toxicity, cell-based; settings: at 0.5 to 64 µg/mL, dose 0.5-64 µg/ml, read-out: Activity
[24] = tested on: Staphylococcus aureus; experiment: Antibiofilm activity against methicillin-resistant Staphylococcus aureus assessed as decrease in metabolic activity at 1 to 16 microg/ml measured for 6 hrs by alamar blue staining based assay; assay type: functional, organism-based; settings: dose 1-16 µg/ml
[25] = tested on: Cell membrane; experiment: Induction of membrane depolarization in methicillin-resistant Staphylococcus aureus assessed as increase in fluorescence intensity at 1 times MIC by DiSC35 dye-based fluorescence assay; assay type: subcellular; settings: time 1.0 hrs, TDE = time-dependent effect
[26] = tested on: Cell membrane; experiment: Induction of membrane depolarization in methicillin-resistant Staphylococcus aureus assessed as increase in fluorescence intensity at 4 times MIC measured at 5 min by DiSC35 dye-based fluorescence assay; assay type: subcellular
[27] = tested on: Cell membrane; experiment: Induction of cell membrane permeability in Staphylococcus aureus assessed as increase in fluorescence intensity measured upto 135 mins by propidium iodide staining based fluorescence assay; assay type: subcellular
[28] = tested on: Cell membrane; experiment: Induction of cell membrane disruption in methicillin-resistant Staphylococcus aureus assessed as increase in protein leakage at 16 microg/ml incubated for 8 hrs; assay type: subcellular; settings: dose 16.0 µg/ml
[29] = tested on: Staphylococcus aureus; experiment: Induction of morphological changes in methicillin-resistant Staphylococcus aureus assessed as membrane deformations at 4 times MIC incubated for 4 hrs by scanning electron microscopic analysis; assay type: functional, organism-based
[30] = tested on: Staphylococcus aureus; experiment: Induction of morphological changes in methicillin-resistant Staphylococcus aureus assessed as cracking of cells at 4 times MIC incubated for 4 hrs by scanning electron microscopic analysis; assay type: functional, organism-based
[31] = tested on: Calf thymus DNA; experiment: Binding affinity to calf thymus DNA by UV/vis spectrophotometric analysis; assay type: nucleic-acid assay; settings: Bos taurus; dose 4.0 10^-5mol/L
[32] = tested on: Calf thymus DNA; experiment: Binding affinity to calf thymus DNA assessed as compound-DNA complex formation at 4 10^-5mol/L by UV/vis spectrophotometric analysis; assay type: nucleic-acid assay; settings: Bos taurus
[33] = tested on: Calf thymus DNA; experiment: Competitive binding affinity to calf thymus DNA assessed as compound-DNA complex formation upto 2 10^-5mol/L in presence of neutral red by UV/vis spectrophotometric analysis; assay type: nucleic-acid assay; settings: Bos taurus

`CCCCN1C(=O)/C(=N\Nc2nccs2)c2ccccc21` showed an MIC [1] of 0.25 µM (≈ 0.0751 µg/mL), an MIC [2] of 0.5 µM (≈ 0.15 µg/mL) and an MIC [3] of 0.5 µM (≈ 0.15 µg/mL). The MIC [4] was 0.25 µM (≈ 0.0751 µg/mL), the MIC [5] was 0.25 µM (≈ 0.0751 µg/mL) and the MIC [6] was 0.25 µM (≈ 0.0751 µg/mL). For the same compound, the MIC [7] was 0.5 µM (≈ 0.15 µg/mL), the MIC [8] was 0.25 µM (≈ 0.0751 µg/mL) and the MIC [9] was 0.5 µM (≈ 0.15 µg/mL). It also gave an MIC [10] of 0.5 µM (≈ 0.15 µg/mL), an MIC [11] of 1 µM (≈ 0.3 µg/mL) and an MIC [12] of 0.5 µM (≈ 0.15 µg/mL). The MIC [13] was 0.5 µM (≈ 0.15 µg/mL), the MIC [14] was 0.5 µM (≈ 0.15 µg/mL) and the MIC [15] was 0.5 µM (≈ 0.15 µg/mL). The MIC [16] was 1 µM (≈ 0.3 µg/mL), the Activity [17] was 30% and the Activity [18] was “Dose-Dependent Effect”. For the same compound, the Activity [19] was “Active”, the Activity [20] was “Active” and the Activity [21] was “inactive”. The hemolysis at 2 h, 64 µg/mL [22] was under 5%, the viability at 24 h [23] was over 75% and the Activity [24] was “Active”. The Activity [25] was “Tde”, the Activity [26] was “Active” and the Activity [27] was “Active”. The Activity [28] was “Active”, the Activity [29] was “Active” and the Activity [30] was “Active”. The Activity [31] was “Dose-Dependent Effect”, the Activity [32] was “Active” and the Activity [33] was “Active”.
